The source made the active and inactive calls. No rule for the calls is given here.
Experiments:
[1] = target: Endothelial PAS domain-containing protein 1 (Homo sapiens) (UniProt Q99814); assay: potency against HIF reporters across cell lines – luminescence, panel, selectivity assay for HIF-2a inhibitor project, dose response (AID 651581); settings: human cell HIF reporter
[2] = target: Hypoxia-inducible factor 1-alpha (Homo sapiens) (UniProt Q16665); assay: as above; settings: human cell HIF reporter, HIF-1a
Chain of Hypoxia-inducible factor 1-alpha (Homo sapiens) (Q16665 whole entry, looked up): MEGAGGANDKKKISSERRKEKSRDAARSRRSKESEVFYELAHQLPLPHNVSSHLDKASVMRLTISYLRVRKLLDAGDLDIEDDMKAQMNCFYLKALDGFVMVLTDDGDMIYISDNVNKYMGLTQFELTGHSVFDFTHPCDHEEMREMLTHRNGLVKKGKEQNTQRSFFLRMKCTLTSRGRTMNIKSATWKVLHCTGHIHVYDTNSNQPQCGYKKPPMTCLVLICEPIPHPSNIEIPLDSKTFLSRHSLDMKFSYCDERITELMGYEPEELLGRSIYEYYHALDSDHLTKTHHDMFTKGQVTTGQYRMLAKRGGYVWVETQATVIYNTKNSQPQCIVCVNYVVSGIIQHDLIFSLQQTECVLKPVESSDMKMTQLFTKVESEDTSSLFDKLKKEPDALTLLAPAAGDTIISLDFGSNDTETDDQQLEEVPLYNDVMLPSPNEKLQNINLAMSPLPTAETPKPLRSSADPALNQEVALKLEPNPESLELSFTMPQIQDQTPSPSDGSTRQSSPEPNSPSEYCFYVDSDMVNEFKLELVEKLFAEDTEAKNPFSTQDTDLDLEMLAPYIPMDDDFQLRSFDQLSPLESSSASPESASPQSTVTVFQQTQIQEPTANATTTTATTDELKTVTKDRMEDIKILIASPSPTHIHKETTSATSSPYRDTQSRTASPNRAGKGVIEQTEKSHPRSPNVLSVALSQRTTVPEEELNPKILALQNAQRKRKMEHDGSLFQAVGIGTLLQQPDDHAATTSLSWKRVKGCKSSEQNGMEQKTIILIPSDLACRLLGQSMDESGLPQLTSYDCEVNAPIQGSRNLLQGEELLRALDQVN

| Compound | IC50 ([1]; HIF-2a PANC, mean of runs) | IC50 ([1]; HIF-2a PANC, run 1) | IC50 ([1]; HIF-2a PANC, run 2) | IC50 ([1]; HIF-2a, mean of runs) | IC50 ([1]; HIF-2a, run 1) | IC50 ([1]; HIF-2a, run 2) | IC50 ([2]; run 1) | IC50 ([2]; run 2) | IC50 ([2]; mean of runs) |
| --- | --- | --- | --- | --- | --- | --- | --- | --- | --- |
| CCOc1ccc(C(=O)Nc2cccc(C(=O)O)c2C)cc1Cl | 28.2 µM | 25 µM | 31.5 µM | inactive | 13.3 µM | 16.6 µM | > 30 µM | > 99 µM |  |
| O=C(CCCc1ccccc1)Nc1cccc(C(=O)O)c1 | > 99 µM (inactive) | > 99 µM | > 99 µM | inactive | 17 µM | 14.5 µM | > 99 µM | > 99 µM |  |
| C=CS(=O)(=O)c1sc(Cl)c(N2CCOCC2)c1[N+](=O)[O-] |  | > 99 µM | 15.5 µM | 8.96 µM | 9.47 µM | 8.45 µM | 47.5 µM | > 99 µM |  |
| COC(=O)CSc1nnc(-c2sc3ccccc3c2Cl)o1 | 4.99 µM | 4.35 µM | 5.63 µM | 2.36 µM | 2.08 µM | 2.64 µM | 2.3 µM | 2.49 µM | inactive |
| Cc1ccc(C(C)C)c(OCc2ccc(-c3nnco3)cc2)c1 | > 99 µM (inactive) | > 99 µM | > 99 µM | 1.7 µM | 1.92 µM | 1.49 µM | > 99 µM | > 99 µM |  |
| N=c1nc(SCCC(=O)O)ss1 | inactive | 30.8 µM | 39.5 µM | 6.38 µM | 6.36 µM | 6.39 µM | 7.84 µM | 14.4 µM | inactive |
| O=[N+]([O-])C1C(c2ccccc2)C12c1ccccc1-c1ccccc12 (stereo not given) |  | > 99 µM | < 3 µM | 7.05 µM | 7.84 µM | 6.26 µM | 41.2 µM | 40.3 µM | 40.8 µM |
| CC(C)(C)c1ccc(-c2noc(CCC(=O)Nc3cccnc3)n2)cc1 | < 0.3 µM | < 1 µM | < 0.3 µM | < 1 µM | < 1 µM | < 1 µM | 78.9 µM | 49.5 µM | 64.2 µM |
| FC(F)(F)c1cnc(NNC(=S)Nc2ccccc2)c(Cl)c1 | 2.3 µM | 1.23 µM | 3.36 µM | 7.78 µM | 8.41 µM | 7.15 µM | 13.9 µM | 44 µM | 28.9 µM |
| CC(=O)/C=C1/C(=O)Nc2ccccc21 | > 99 µM (inactive) | > 99 µM | > 99 µM | inactive | 13.9 µM | 14.2 µM | 32.6 µM | 26.2 µM | inactive |
| CCOC(=O)C1CCN(Cc2cc(=O)oc3c(C)c(C)ccc23)CC1 | 14.2 µM | 19.7 µM | 8.77 µM | 7.52 µM | 7.96 µM | 7.07 µM | 31.7 µM | 25.9 µM | 28.8 µM |
| COCCn1c(C)cc(C(=O)CSc2nnc(C)s2)c1C | 7.96 µM | 3.81 µM | 12.1 µM | 5.99 µM | 6.5 µM | 5.48 µM | 8.55 µM | 18.9 µM | inactive |
| COc1ccc(CNC(=O)c2nc(S(=O)(=O)Cc3ccccc3)ncc2Cl)cc1 | inactive | 29.8 µM | 31.1 µM | 8.83 µM | 8.77 µM | 8.9 µM | 28.1 µM | 26 µM | 27 µM |
| CCOC(=O)Cc1csc(N/N=C/c2ccc(C(F)(F)F)cc2)n1 | 0.711 µM | 0.556 µM | 0.866 µM |  | > 99 µM | 0.221 µM | < 10 µM | > 99 µM |  |
| O=C(O)c1ccc2nc(-c3ccccc3)sc2c1 | 11.4 µM | 12.7 µM | 10.2 µM |  | < 30 µM | > 99 µM | 26.6 µM | 22.9 µM | inactive |
| CS(=O)(=O)c1ccc(-c2cn3cc(C(=O)O)ccc3n2)cc1 |  | 86.7 µM | > 99 µM | inactive | 28.8 µM | 47.2 µM | > 99 µM | > 99 µM | > 99 µM (inactive) |
| COc1ccc(OC)c(S(=O)(=O)ON2C(=O)c3ccccc3C2=O)c1 | > 99 µM (inactive) | > 99 µM | > 99 µM | 8.27 µM | 9.25 µM | 7.3 µM | > 99 µM | > 99 µM |  |
| Cc1ccc(C)c(S(=O)(=O)ON2C(=O)c3ccccc3C2=O)c1 | > 99 µM (inactive) | > 99 µM | > 99 µM | 8.46 µM | 8.53 µM | 8.39 µM | > 99 µM | > 99 µM |  |
